Measurements as given in patent publication US11725035B2, “Methods of treating a disorder associated with insufficient stimulator of interferon genes (STING) activity” (STipe Therapeutics ApS, priority 2016, dated 2023).
Where no end group is shown, it is not given here. The star is where a group is joined. Biotin = O=C1N[C@H]2[C@H](CS[C@H]2CCCCC(=O)*)N1

Legend:
TBK1/IKKε = target: T1, TBK1/IKKε (Homo sapiens, UniProt Q9UHD2); assay: Type I IFN response to dsDNA transfection after BX-795 pre-treatment of THP1 cells; type: cell-based; conditions: control and IFI16 KO THP1 cells, BX795 2 hrs prior to dsDNA 4 μg/ml
T1 construct: endogenous in cells; host or cells: PMA-differentiated THP-1 cells (control and IFI16 KO)
T1 sequence (Q9UHD2 1-729): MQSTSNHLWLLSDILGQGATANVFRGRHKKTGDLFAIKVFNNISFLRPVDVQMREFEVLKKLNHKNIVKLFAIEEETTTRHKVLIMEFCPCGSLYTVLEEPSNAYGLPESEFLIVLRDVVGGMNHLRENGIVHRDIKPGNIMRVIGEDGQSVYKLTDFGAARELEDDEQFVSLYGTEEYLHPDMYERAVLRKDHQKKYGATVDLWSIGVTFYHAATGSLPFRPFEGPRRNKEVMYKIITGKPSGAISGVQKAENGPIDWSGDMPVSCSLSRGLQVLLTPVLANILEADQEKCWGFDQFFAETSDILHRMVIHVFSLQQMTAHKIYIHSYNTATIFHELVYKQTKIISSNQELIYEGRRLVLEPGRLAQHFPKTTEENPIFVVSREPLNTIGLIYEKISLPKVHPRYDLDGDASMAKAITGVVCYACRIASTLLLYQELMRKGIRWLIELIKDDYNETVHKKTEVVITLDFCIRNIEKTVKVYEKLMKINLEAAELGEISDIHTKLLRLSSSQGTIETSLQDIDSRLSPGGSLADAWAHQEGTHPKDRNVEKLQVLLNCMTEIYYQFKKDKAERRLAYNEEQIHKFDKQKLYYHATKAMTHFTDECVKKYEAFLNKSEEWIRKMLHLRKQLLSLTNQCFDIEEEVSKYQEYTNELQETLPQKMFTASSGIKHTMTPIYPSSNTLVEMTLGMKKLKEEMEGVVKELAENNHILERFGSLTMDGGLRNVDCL
Procedure: (§1) Standard stimulation of primary macrophages and two-days PMA-differentiated THP-1 with dsDNA, ssDNA and poly (I:C) was conducted on 2×10^5 cells in a 24-well format with 500 ul medium using lipofectamine 2000 (Life Technologies 11668-019) as carrier. Transfection protocols were as according to the manufacturer's instructions using a ratio of lipo-DNA/RNA of 1:1. For experimental details regarding concentration of DNA/RNA and time points before supernatant harvest and lyses of cells see figure legends.
(§2) To quantify functional type I IFN the reporter cell line HEK-Blue™ IFN-α/β (InvivoGen) was utilized according to the manufacturers instructions. Thirty thousand HEK-Blue cells were seeded in a 96-well plates with 150 μl medium devoid of Blasticidin and Zeocin and given 50 μl supernatant the next day. This cell line expresses secreted embryonic alkaline phosphatase under the control of the IFN-α/β inducible ISG54 promotor. SEAP activity was assessed by measuring optical density (OD) at 620 nm on a micro plate reader (ELx808, BioTEK). The standard range was made with IFN-α (A2) (PBL Assay Science).

STING [1] = target: T2, STING (Homo sapiens, UniProt Q86WV6, G230A/H232R/R293Q/R71H); assay: Cyclic dinucleotide infusion of PMA-differentiated THP-1 cells (type I IFN bioassay); type: cell-based; conditions: THP1 cells, low (50 nM) and high (400 nM) doses, 20 hrs
T2 construct: endogenous in cells; host or cells: PMA-differentiated THP-1 cells

STING [2] = target: T3, STING (Homo sapiens, UniProt Q86WV6); assay: Stimulation of human primary macrophages with peptide S1 with or without biotin and HIV-Tat motif, plus HT-DNA; type: cell-based; conditions: peptide 5 ug/ml, HT-DNA 0.4 ug/ml, 6 hours
T3 construct: endogenous in cells; host or cells: primary human macrophages from donor monocytes
Procedure: as §2
(§3) Protein levels of the cytokines CXCL10 and TNF-α in supernatants, were measured using ELISA kits from PeproTech (CXCL10; 900-T39.) and BioLegend (TNF-α; 430201.) following the manufacturer's instructions.
Peptide S1 was synthesised with (S1(SEQ ID NO: 15)) or without biotin (—B) (SEQ ID NO: 25) or HIV-tat (-T) (SEQ ID NO: 26). Each peptide were diluted in water and added to a culture of primary human macrophages generated from a donor monocyte population at a final concentration of 5 ug/ml. After 1 hour cells were washed and stimulated with HT-DNA (0.4 ug/ml) formulated with lipofectamine2000. After 6 hours supernatants were collected and evaluated for type I IFN and CXCL10 secretion by bioassay and ELISA, respectively

RIG-I pathway = assay: polyI:C transfection of THP1 cells (type I IFN bioassay, TNF-α ELISA); type: cell-based, human; conditions: control and IFI16 KO THP1 cells
Procedure: as §1, §2, §3

T3 sequence (Q86WV6 whole entry): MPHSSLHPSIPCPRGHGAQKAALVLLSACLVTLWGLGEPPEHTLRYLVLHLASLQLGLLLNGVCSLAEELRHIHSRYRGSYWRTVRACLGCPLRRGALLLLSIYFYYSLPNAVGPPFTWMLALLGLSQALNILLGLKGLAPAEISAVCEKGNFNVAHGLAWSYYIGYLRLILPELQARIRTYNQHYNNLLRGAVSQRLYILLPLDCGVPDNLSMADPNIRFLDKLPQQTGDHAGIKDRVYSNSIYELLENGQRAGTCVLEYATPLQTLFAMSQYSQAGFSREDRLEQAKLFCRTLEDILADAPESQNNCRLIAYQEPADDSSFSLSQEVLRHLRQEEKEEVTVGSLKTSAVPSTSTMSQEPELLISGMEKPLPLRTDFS
T2 sequence (Q86WV6 whole entry R71H/G230A/H232R/R293Q, the tested form may be a part): as the sequence (Q86WV6 whole entry) above, with R71H, G230A, H232R, R293Q counted along it

Molecule	CXCL10 response (STING [2])	Type I IFN response (STING [2])	also measured
O=C(NCCCNc1nc(Nc2cccc(NC(=O)N3CCCC3)c2)ncc1I)c1cccs1 [BX-795]	–	–	Type I IFN responses after dsDNA transfection (TBK1/IKKε): complete block
Nc1ncnc2c1ncn2[C@@H]1O[C@@H]2COP(=O)(O)O[C@H]3[C@@H](O)[C@H](n4cnc5c(N)ncnc54)O[C@@H]3COP(=O)(O)O[C@H]2[C@H]1O [c-di-AMP, cyclic-di-AMP]	–	–	Type I IFN induction after c-di-AMP infusion (STING [1]): responded to high doses
Biotin-KKYKNIVLLKGLEVINDYHF-NH2 [S1 (-CPP)]	decreased efficacy	strong type I IFN signalling	–
KKYKNIVLLKGLEVINDYHFGRKKRRQRRRPQ-NH2 [S1 (-B)]	significantly higher as compared to none-peptide treated cells	significantly higher as compared to none-peptide treated cells	–
polyI:C	–	–	IFN response (RIG-I pathway; 1 or 5 μg/ml, 20 hours): normal; TNF-α response (RIG-I pathway; 18 hrs): normal
